Test results published in patent publication US10030056B2, “Agents for preventing and treating HIV and other viral infections” (priority 2013, dated 2018).
Non-standard residues stand in square brackets, D forms with d. No end group written: not given here.

Legend:
HIV-1 [1] = tested on: HIV-1
Excerpt: So as to analyze the effect of the amyloidogenic inhibitor D3 as a potential therapeutic agent for reducing amyloid peptide-promoted retroviral propagation, adherently growing TZM-bl cells were infected with HIV-1. These cells express the HIV-1 receptors CD4, CXCR4 and CCR5, which is why they are permissive both for T-tropic and M-tropic HIV isolates. […] The TZM-bl indicator cell line thus allows a quantitative analysis of HIV infection efficiency.
D3 was composed of amino acids of the D-enantiomeric form. Forty-eight hours after infection, the TZM-bl cells were washed with PBS, fixed by adding formaldehyde/glutaraldehyde, and subsequently washed again. The β-galactosidase-induced blue coloration of the cells was carried out by incubation overnight with a X-Gal solution. The coloring solution was removed the following day, the fixed cells were washed again with PBS and analyzed for blue coloration by way of optical microscopy. Since these reporter cells also express luciferase, in addition to the β-galactosidase, proportionally with the infection rate, this effect could also be determined quantitatively. […] After adding luciferase substrate solution, the light intensity at the 560 nm wavelength created by the oxidation of luciferin, which, in turn, is catalyzed by the firefly luciferase enzyme, was measured. […]

[2] = tested on: HIV-1 laboratory strain NL4-3 PI 952; assay: Infectivity of HIV-1 NL4-3 PI 952 in TZM-bl cells with 6 μg/ml SEVI fibrils, luciferase activity (FIG. 4, Table 1); format: cell-based; details: for luciferase activity of infected cells, mean value: 6 μg/ml SEVI fibrils, 48 hours after infection, HIV + SEVI control 7264.0, HIV + PBS 579.0; for lowering of the increased infectivity of the viruses caused by fibrils associated with SEVI: summary of Table 1 / FIG. 4
Protocol: The test approach was broken down as follows: The reporter cell line TZM-bl was incubated with the HIV-1 laboratory strain NL4-3 PI 952 in the presence of 6 μg/ml SEVI fibrils (fibril-forming PAP fragments isolated from semen; semen derived enhancer of virus infection). The fibrils were pre-Incubated with or without D3 and D3D3 (0.5 and 5 μg/ml, respectively) prior to infection. The infection efficiency was determined by measuring the luciferase activity (introduced by a luciferase gene coded in the laboratory strain) of the infected cells 48 hours after infection (Table 1: Results of FIG. 4).

HIV-1 [3] = tested on: HIV-1; remark: listed apart in the source
Excerpt: So as to analyze the effect of the amyloidogenic inhibitor D3 as a potential therapeutic agent for reducing amyloid peptide-promoted retroviral propagation, adherently growing TZM-bl cells were infected with HIV-1. […] The TZM-bl indicator cell line thus allows a quantitative analysis of HIV infection efficiency.
D3 was composed of amino acids of the D-enantiomeric form. Forty-eight hours after infection, the TZM-bl cells were washed with PBS, fixed by adding formaldehyde/glutaraldehyde, and subsequently washed again. The β-galactosidase-induced blue coloration of the cells was carried out by incubation overnight with a X-Gal solution. The coloring solution was removed the following day, the fixed cells were washed again with PBS and analyzed for blue coloration by way of optical microscopy. Since these reporter cells also express luciferase, in addition to the β-galactosidase, proportionally with the infection rate, this effect could also be determined quantitatively. For this purpose, the cells were infected in the same manner and, after being washed twice with PBS, were lysed using 1× passive lysis buffer (PLB). After adding luciferase substrate solution, the light intensity at the 560 nm wavelength created by the oxidation of luciferin, which, in turn, is catalyzed by the firefly luciferase enzyme, was measured. […]

[4] = number of cells colored in blue and measured light intensity

Substance: rprtrlhthrnr ([dR][dP][dR][dT][dR][dL][dH][dT][dH][dR][dN][dR]) [D3]
- decrease in number of infected cells compared to the untreated cells with SEVI fibrils (HIV-1 [1]; 0.5 μg/ml D3, SEVI fibrils, TZM-bl cells, FIG. 2C): approximately 60%
- reduction of infection rate promoted by SEVI (HIV-1 [1]; [4]): considerably reduce
- luciferase activity of infected cells, mean value ([2]; 0.5 μg/ml peptide): 7112.7
- luciferase activity of infected cells, mean value ([2]; 5 μg/ml peptide): 4368.0
- lowering of the increased infectivity of the viruses caused by fibrils associated with SEVI [2]: approximately 80%
- decrease in number of infected cells compared to the untreated cells with amyloid-beta fibrils (HIV-1 [3]; 5 μg/ml D3, Aβ1-42 fibrils 50 μg/ml, TZM-bl cells, FIG. 2D): approximately 90%
- reduction of infection rate promoted by Aβ (HIV-1 [3]; [4]): considerably reduce

Substance: rprtrlhthrnrrprtrlhthrnr ([dR][dP][dR][dT][dR][dL][dH][dT][dH][dR][dN][dR][dR][dP][dR][dT][dR][dL][dH][dT][dH][dR][dN][dR]) [D3D3, dimer of two D3 monomer units]
- luciferase activity of infected cells, mean value ([2]; 0.5 μg/ml peptide): 5529.7
- luciferase activity of infected cells, mean value ([2]; 5 μg/ml peptide): 1321.0
- lowering of the increased infectivity of the viruses caused by fibrils associated with SEVI [2]: approximately 80%
